# Measurements from ChEMBL document CHEMBL5634129, “Design, synthesis, and structure-activity relationships of a novel class of quinazoline derivatives as coronavirus inhibitors” (Eur J Med Chem, 2023).
# Assays:
# [1] = Cytotoxicity in human NCI-H460 cells infected with HCoV-OC43 treated for 72 hrs by CPE inhibition assay; assay type: toxicity, cell-based; conditions: read-out: TC50
# [2] = test system: Human coronavirus OC43; test: Antiviral activity against HCoV-OC43 infected in human NCI-H460 cells treated for 72 hrs by CPE inhibition assay; assay type: functional, organism-based; conditions: Betacoronavirus 1, NCI-H460, 72 h
# [3] = Selectivity index, ratio of TC50 for human NCI-H460 cells infected with HCoV-OC43 to EC50 for HCoV-OC43 infected in human NCI-H460 cells; assay type: toxicity, cell-based; conditions: read-out: Selectivity Index
Compound,CC50 at 72 h [1],EC50 [2],selectivity ratio [3]
Clc1ccc2ncnc(NCCN3CCOCC3)c2c1,> 200 µM,155 µM,–
Fc1cc(Nc2ncnc3ccc(Cl)cc23)cc(C(F)(F)F)c1,5.14 µM,2.47 µM,2.08
COc1ccc2ncnc(Nc3cc(Cl)cc(C#N)c3)c2c1,240 µM,9.98 µM,24.1
Fc1ccc2ncnc(Nc3cc(C(F)(F)F)cc(C(F)(F)F)c3)c2c1,12.8 µM,0.88 µM,14.6
O=C(O)c1ccc(Nc2ncnc3ccc(Cl)cc23)c(Cl)c1,96.2 µM,> 22.2 µM,–
COc1ccc2ncnc(NNC(=O)c3cc(C(F)(F)F)cc(C(F)(F)F)c3)c2c1,289 µM,1.71 µM,289
CCOc1ccc2nc(NCC(F)(F)F)nc(Nc3cc(C(F)(F)F)cc(C(F)(F)F)c3)c2c1,32.1 µM,2.06 µM,15.6
FC(F)(F)c1cc(Nc2ncnc3ccccc23)cc(C(F)(F)F)c1,17.2 µM,1.43 µM,12.1
COc1ccc2ncnc(Nc3cc(F)cc(OC(F)(F)F)c3)c2c1,289 µM,9.98 µM,28.9
COC(=O)c1cc(F)cc(Nc2ncnc3ccc(OC)cc23)c1,388 µM,> 55.6 µM,–
CCOc1ccc2nc(NC(Cc3ccccc3)C(=O)OC(C)(C)C)nc(Nc3cc(C(F)(F)F)cc(C(F)(F)F)c3)c2c1 (stereo not given),38.5 µM,18.5 µM,2.1
CCOc1ccc2nc(N3CCN(C)CC3)nc(Nc3cc(C(F)(F)F)cc(C(F)(F)F)c3)c2c1,10.7 µM,0.48 µM,22.3
COc1ccc2ncnc(Nc3cc(Cl)cc(C(F)(F)F)c3)c2c1,129 µM,1.43 µM,90.4
FC(F)(F)c1cc(Nc2ncnc3ccc(Br)cc23)cc(C(F)(F)F)c1,2.47 µM,0.35 µM,7.1
COC(=O)c1cc(C#N)cc(Nc2ncnc3ccc(OC)cc23)c1,> 500 µM,2.65 µM,> 189
COC(=O)c1cc(Nc2ncnc3ccc(OC)cc23)cc(C(=O)OC)c1,240 µM,55.6 µM,4.3
Clc1ccc2ncnc(Nc3ccccc3Cl)c2c1,96.2 µM,> 22.2 µM,–
O=[N+]([O-])c1cccc(Nc2ncnc3ccc(Cl)cc23)c1,51.7 µM,4.28 µM,12.1
COc1cc(/C=C/c2ccccc2)c(C(=O)O)c(O)c1CC=C(C)C,38.5 µM,22.2 µM,–

Compound,CC50 at 72 h [1],EC50 [2],selectivity ratio [3]
CCOC(=O)c1c(/C=C/c2ccccc2)cc(OC)c(CC=C(C)C)c1O,> 200 µM,139 µM,–
FC(F)(F)c1cc(Nc2ncnc3ncccc23)cc(C(F)(F)F)c1,32.1 µM,5.14 µM,6.2
CCCOc1ccc2ncnc(Nc3cc(C(F)(F)F)cc(C(F)(F)F)c3)c2c1,388 µM,0.37 µM,1050
COc1ccc2ncnc(Nc3cccc(C(F)(F)F)c3)c2c1,10.7 µM,4.28 µM,2.5
COc1cc2c(Nc3cc(C(F)(F)F)cc(C(F)(F)F)c3)ncnc2cn1,6.93 µM,0.28 µM,24.8
Clc1ccc(Nc2ncnc3ccc(Cl)cc23)c(Cl)c1,15.4 µM,> 7.41 µM,–
Cc1ccc(Nc2ncnc3ccc(Cl)cc23)c(Cl)c1,28.6 µM,> 7.41 µM,–
NC(=O)c1ncn([C@@H]2O[C@H](CO)[C@@H](O)[C@H]2O)n1 [RIBAVIRIN],409 µM,78.8 µM,5.2
O=[N+]([O-])c1ccc(Nc2ncnc3ccc(Cl)cc23)cc1,46.2 µM,> 7.41 µM,–
COc1ccc2ncnc(Nc3cc(F)cc(F)c3)c2c1,388 µM,23.9 µM,16.3
CCOc1ccc2nc(NCc3ccco3)nc(Nc3cc(C(F)(F)F)cc(C(F)(F)F)c3)c2c1,10.7 µM,1.19 µM,9
CCOc1ccc2nc(N3CCC(F)(F)CC3)nc(Nc3cc(C(F)(F)F)cc(C(F)(F)F)c3)c2c1,12.8 µM,6.17 µM,2.1
O=[N+]([O-])c1cnc(Nc2ncnc3ccc(Cl)cc23)nc1,139 µM,> 66.7 µM,–
CC(C)Oc1ccc2ncnc(Nc3cc(C(F)(F)F)cc(C(F)(F)F)c3)c2c1,388 µM,43.1 µM,9
COc1cc(/C=C/c2ccc(F)cc2)c(C(=O)O)c(O)c1CC=C(C)C,38.5 µM,12.8 µM,–
COc1ccc2ncnc(Nc3cc(C(F)(F)F)ccc3F)c2c1,15.4 µM,> 6.17 µM,–
CCN(CC)CCCC(C)Nc1ncnc2ccc(Cl)cc12 (stereo not given),> 200 µM,> 200 µM,–
CN(C)c1ccc(Nc2ncnc3ccc(Cl)cc23)c(Cl)c1,4.28 µM,> 2.47 µM,–
CN1CCN(CCNc2ncnc3ccc(Cl)cc23)CC1,> 200 µM,> 66.7 µM,–

Compound,CC50 at 72 h [1],EC50 [2],selectivity ratio [3]
Clc1ccc2ncnc(Nc3ccc(Br)cc3)c2c1,5.14 µM,> 2.47 µM,–
CCOc1ccc2nc(NC(C)CCCN(CC)CC)nc(Nc3cc(C(F)(F)F)cc(C(F)(F)F)c3)c2c1 (stereo not given),3.56 µM,> 2.06 µM,–
FC(F)(F)c1cc(CNc2ncnc3ccc(Cl)cc23)cc(C(F)(F)F)c1,388 µM,9.98 µM,–
CCOC(=O)c1ccc(Nc2ncnc3ccc(Cl)cc23)c(Cl)c1,32 µM,> 7.41 µM,–
CC/C=C/c1cc(OC)c(CC=C(C)C)c(O)c1C(=O)O,46.2 µM,> 22.2 µM,–
Clc1ccc(Nc2ncnc3ccc(Cl)cc23)cc1,12.8 µM,> 7.41 µM,–
COc1ccc2ncnc(Nc3cccc(C#N)c3)c2c1,388 µM,> 55.6 µM,–
COc1ccc2ncnc(Nc3cc(C(F)(F)F)cc(C(F)(F)F)c3)c2c1,96.2 µM,1.14 µM,–
CN(C)c1ccc(Nc2ncnc3ccc(Cl)cc23)cc1Cl,4.28 µM,> 2.47 µM,–
O=[N+]([O-])c1ccc(Nc2ncnc3ccc(Cl)cc23)cc1Cl,22.2 µM,> 2.47 µM,–
CCOC(=O)c1ccc(Nc2ncnc3ccc(Cl)cc23)cc1,38.5 µM,> 7.41 µM,–
N#Cc1ccc(Nc2ncnc3ccc(Cl)cc23)c(Cl)c1,46.2 µM,> 22.2 µM,–
CCOc1ccc2nc(NC3CCCC3)nc(Nc3cc(C(F)(F)F)cc(C(F)(F)F)c3)c2c1,12.8 µM,> 6.17 µM,–
COc1ccc(Nc2ncnc3ccc(Cl)cc23)cc1,12.8 µM,> 7.41 µM,–
O=[N+]([O-])c1ccc(CNc2ncnc3ccc(Cl)cc23)cc1,167 µM,55.6 µM,–
Fc1ccc(Nc2ncnc3ccc(Cl)cc23)cc1,15.4 µM,> 7.41 µM,–
N#Cc1ccc(Nc2ncnc3ccc(Cl)cc23)cc1,28.6 µM,> 7.41 µM,–
COc1ccc2ncnc(N3CCN(c4cc(C(F)(F)F)cc(C(F)(F)F)c4)C(=O)C3)c2c1,240 µM,6.17 µM,–
